# Literature values, collected in US4966768A, “Sustained release etodolac” (priority 1988, dated 1990).
# Entries after “also recorded” stand apart in the source; their conditions may differ.
# Columns and labels:
# [1] = in vivo
# [2] = test system: adjuvant arthirtis; conditions: reported in U.S. Pat. No. 4,533,551
smiles,measurement,setting,value
"CCc1cccc2c3c([nH]c12)C(CC)(CC(=O)O)OCC3 (centres unmarked) [Etodolac, 1,8-diethyl-1,3,4,9-tetrahydropyrano[3,4-b] indole-1-acetic acid]",aqueous solubility (in words),below pH 3,very low and pH independent below pH 3; also recorded: water insoluble to an appreciable extent below pH 3
same,difference in solubility between pH 5 and 7,between pH 5 to 7,thirty
same,aqueous solubility with rising pH (in words),up to pH 5 and from pH 5 to 7,gradually increases with rising pH up to 5 and linearly increases with increasing pH to 7
same,reported pharmacological properties (in words),[1],analgesic and anti-inflammatory properties
same,activity in adjuvant arthritis (in words),[2],active in the treatment of adjuvant arthirtis
